Experiment: log P by HPLC-MS
Assay type: physicochemical

| chromatographic logP | Structure (SMILES) |
| --- | --- |
| 2.53 | Fc1ccc(Cl)nc1I [Example 1, 6-chloro-3-fluoro-2-iodopyridine] |
| 1.85 | COC(=O)c1ccc(F)c(I)n1 [Example 2, methyl 5-fluoro-6-iodopyridine-2-carboxylate] |
| 2.67 | Fc1ccc(Br)nc1I [Example 3, 6-bromo-3-fluoro-2-iodopyridine] |

From patent US10766909B2, “Process for preparing halogenated pyridine derivatives” (Bayer CropScience Aktiengesellschaft, priority 2016, dated 2020)
